In assay [1] the test system is PC-9 cells (EGFR Ex19Del). Put plainly: Potency Assay: pERK (SOS1 pERK IC50 Assay, AlphaLISA SureFire Ultra p-ERK1/2). It is filed as cell-based. To be noted: Homo sapiens; PC-9 cells (EGFR Ex19Del), 1 hour incubation, AlphaLISA p-ERK1/2; read-out: SOS1 pERK IC50. An outline of the steps:
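PC-9 (EGFR Ex19Del) cells plated overnight, then treated 1 h at 37° C. with 10-point 3-fold dilutions (top 10 μM final) in duplicate. Lysate pERK1/2 measured by AlphaLISA SureFire Ultra; IC50 from 4-parameter sigmoidal fit.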
In general terms: Alpha assays give light when donor and acceptor beads are brought close together.

For assay [2], the target named is T1, SOS1 catalytic domain (residues 564-1049) (Homo sapiens, UniProt Q07889).
T1 sequence (Q07889 564-1049): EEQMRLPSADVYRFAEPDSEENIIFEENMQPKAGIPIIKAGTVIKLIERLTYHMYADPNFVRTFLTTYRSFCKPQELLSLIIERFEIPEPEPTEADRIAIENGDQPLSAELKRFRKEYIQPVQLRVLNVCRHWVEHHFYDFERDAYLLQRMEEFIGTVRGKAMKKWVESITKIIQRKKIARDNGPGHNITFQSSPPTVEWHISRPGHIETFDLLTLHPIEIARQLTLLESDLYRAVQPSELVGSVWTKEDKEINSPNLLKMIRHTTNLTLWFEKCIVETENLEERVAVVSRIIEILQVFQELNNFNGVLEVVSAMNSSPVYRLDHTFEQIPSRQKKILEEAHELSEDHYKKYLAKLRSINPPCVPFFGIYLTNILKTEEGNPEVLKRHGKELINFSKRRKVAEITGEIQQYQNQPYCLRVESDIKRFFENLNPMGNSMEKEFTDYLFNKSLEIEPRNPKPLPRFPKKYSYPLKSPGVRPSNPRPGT
The assay can be described thus: Potency Assay: binding affinity to SOS1 using Surface Plasmon Resonance (SPR). Further details: SOS1 catalytic domain (residues 564-1049) immobilized on a sensor chip. The following applies: immobilized SOS1 catalytic domain (residues 564-1049), read-out: SOS1 SPR Equilibrium Kd. An outline of the steps:
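Avi-tagged SOS1 catalytic domain captured on streptavidin chip (~6000 RU) in 0.01 M HEPES, 0.15 M NaCl, 0.05% P20. Compound dilution series flowed at 50 μL/min for association, then buffer for dissociation, with double reference subtraction. Kd derived from end-of-association binding response plotted against concentration.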

For assay [3], the target named is T1, SOS1 catalytic domain (residues 564-1049). The assay can be described thus: Mode of Action Assay: inhibition of SOS1 nucleotide exchange activity (SOS1 TR-FRET IC50 Assay).

Consider `C[C@@H](Nc1nc(Cl)nc2c1CN(C(=O)c1cc(N3CCOCC3)ccn1)CC2)c1cc(N)cc(C(F)(F)F)c1` [Example 238], for which the IC50 in assay [1] and in assay [3] was above 1 µM throughout. Also, in assay [2], the Kd is above 0.4 µM.
Turning to `COC1(C(=O)N2Cc3nc(C)nc(N[C@H](C)c4cccc(C(F)(F)CO)c4)c3C2)CCOCC1` [Example 239], the results for the IC50 in assay [1] and in assay [3] were above 1 µM and below 1 µM, respectively. In addition, the Kd in assay [2] is below 0.4 µM.
As for `C[C@@H](Nc1nc(Cl)nc2c1CN(C(=O)C1(C)CCOCC1)C2)c1cccc(C(F)(F)CO)c1` [Example 240], the IC50 in assay [1] and in assay [3] was below 1 µM throughout. Further, the Kd in assay [2] is below 0.4 µM.
Take `COC1(C(=O)N2Cc3nc(Cl)nc(N[C@H](C)c4cccc(C(F)(F)CO)c4)c3C2)COC1` [Example 241]: the IC50 in assay [1] and in assay [3] was below 1 µM throughout. The Kd in assay [2] is below 0.4 µM.
In the case of `C[C@@H](Nc1nc(Cl)nc2c1CN(C(=O)c1cnccn1)CC2)c1cc(N)cc(C(F)(F)F)c1` [Example 246], the IC50 in assay [1] and in assay [3] was above 1 µM each time. In addition, the Kd in assay [2] was above 0.4 µM.
For the molecule `C[C@@H](Nc1nc(Cl)nc2c1CN(C(=O)c1ccccn1)CC2)c1cc(N)cc(C(F)(F)F)c1` [Example 247], the IC50 in assay [1] and in assay [3] was above 1 µM each time. The Kd in assay [2] is above 0.4 µM.
Take `C[C@@H](Nc1nc(Cl)nc2c1CN(C(=O)c1nccnn1)CC2)c1cc(N)cc(C(F)(F)F)c1` [Example 248]: the concentration for half-maximal inhibition (IC50) in assay [1] and in assay [3] was above 1 µM throughout. In assay [2], the Kd was above 0.4 µM.
For the molecule `C[C@@H](Nc1nc(Cl)nc2c1CN(C(=O)c1ccc(-n3ccnc3)cn1)CC2)c1cc(N)cc(C(F)(F)F)c1` [Example 250], the IC50 in assay [1] and in assay [3] was above 1 µM throughout. Further, in assay [2], the Kd was above 0.4 µM.
With `C[C@@H](Nc1nc(Cl)nc2c1CN(C(=O)c1ccc(N3CCOCC3)cn1)CC2)c1cc(N)cc(C(F)(F)F)c1` [Example 254], the IC50 in assay [1] and in assay [3] was above 1 µM in each case. Moreover, the dissociation constant Kd in assay [2] was above 0.4 µM.
On to `C[C@@H](Nc1nc(Cl)nc2c1CN(C(=O)C1(C#N)CCOCC1)C2)c1cc(N)cc(C(F)(F)F)c1` [Example 255], for which the IC50 in assay [1] and in assay [3] was below 1 µM each time. The Kd in assay [2] is below 0.4 µM.
In the case of `C[C@@H](Nc1nc(Cl)nc2c1CN(C(=O)C1(F)CCOCC1)C2)c1cc(N)cc(C(F)(F)F)c1` [Example 256], the IC50 in assay [1] and in assay [3] was below 1 µM each time. Also, the dissociation constant (Kd) in assay [2] was below 0.4 µM.
Consider `C[C@@H](Nc1nc(Cl)nc2c1CN(C(=O)CC1CCN(C)C1)C2)c1cc(N)cc(C(F)(F)F)c1` (stereo partly drawn) [Example 257], for which the IC50 was above 1 µM in assay [1] and below 1 µM in assay [3]. In addition, the dissociation constant (Kd) in assay [2] was below 0.4 µM.
Turning to `COC(C(=O)N1Cc2nc(Cl)nc(N[C@H](C)c3cc(N)cc(C(F)(F)F)c3)c2C1)C1CCOC1` (stereo partly drawn) [Example 259], the IC50 in assay [1] and in assay [3] was below 1 µM in each case. Further, the dissociation constant Kd in assay [2] was below 0.4 µM.
Regarding `C[C@@H](Nc1nc(Cl)nc2c1CN(C(=O)[C@H]1C[C@@H](O)C1)C2)c1cc(N)cc(C(F)(F)F)c1` [Example 260], the 50% inhibitory concentration (IC50) in assay [1] and in assay [3] was below 1 µM throughout. In addition, the Kd in assay [2] is below 0.4 µM.
As to `C[C@@H](Nc1nc(Cl)nc2c1CN(C(=O)C1(C)COC1)C2)c1cc(N)cc(C(F)(F)F)c1` [Example 261], the IC50 in assay [1] and in assay [3] was below 1 µM throughout. Moreover, in assay [2], the Kd was below 0.4 µM.
Take `C[C@@H](Nc1nc(Cl)nc2c1CN(C(=O)C1(C)CCN(C)CC1)C2)c1cc(N)cc(C(F)(F)F)c1` [Example 262]: the IC50 in assay [1] and in assay [3] was below 1 µM each time. For the same molecule, in assay [2], the Kd is below 0.4 µM.
With `C[C@@H](Nc1nc(Cl)nc2c1CN(C(=O)C1(F)CNC1)C2)c1cc(N)cc(C(F)(F)F)c1` [Example 263], the concentration for half-maximal inhibition (IC50) in assay [1] and in assay [3] was below 1 µM throughout. In assay [2], the Kd was below 0.4 µM.
For `C[C@@H](Nc1nc(Cl)nc2c1CN(C(=O)[C@@H]1CNC[C@@H]1C)C2)c1cc(N)cc(C(F)(F)F)c1` [Example 264], the IC50 in assay [1] is above 1 µM; in assay [3], below 1 µM. For the same molecule, the dissociation constant Kd in assay [2] is below 0.4 µM.
The matching figures for `C[C@@H](Nc1nc(Cl)nc2c1CN(C(=O)C1(C)CN(C)C1)C2)c1cc(N)cc(C(F)(F)F)c1` [Example 265]: below 1 µM, below 1 µM and below 0.4 µM.
On the same counts, the results for `C[C@@H](Nc1nc(Cl)nc2c1CN(C(=O)C1C3CNCC31)C2)c1cc(N)cc(C(F)(F)F)c1` (stereo partly drawn) [Example 266] are above 1 µM, below 1 µM and below 0.4 µM.
On to `C[C@@H](Nc1nc(Cl)nc2c1CN(C(=O)C1CCNCC1)C2)c1cc(N)cc(C(F)(F)F)c1` [Example 270], for which the IC50 in assay [1] was above 1 µM; in assay [3], below 1 µM. For the same molecule, the Kd in assay [2] is below 0.4 µM.
On the same counts, the results for `C[C@@H](Nc1nc(Cl)nc2c1CN(C(=O)C1(F)CCNCC1)C2)c1cc(N)cc(C(F)(F)F)c1` [Example 272] are below 1 µM, below 1 µM and below 0.4 µM.
On the same counts, the results for `C[C@@H](Nc1nc(Cl)nc2c1CN(C(=O)C(C)(C)C)C2)c1cc(N)cc(C(F)(F)F)c1` [Example 274] are below 1 µM, below 1 µM and below 0.4 µM.
The matching figures for `C[C@@H](Nc1nc(Cl)nc2c1CN(C(=O)[C@@H]1COCCN1)C2)c1cccc(C(F)(F)F)c1` [Example 275]: above 1 µM, below 1 µM and above 0.4 µM.
Take `C[C@@H](Nc1nc(Cl)nc2c1CN(C(=O)C1COCCN1)C2)c1cccc(C(F)(F)F)c1` (stereo partly drawn) [Example 276]: the IC50 was above 1 µM in assay [1] and below 1 µM in assay [3]. Besides, in assay [2], the Kd is above 0.4 µM.
The matching figures for `C[C@@H](Nc1nc(Cl)nc2c1CN(C(=O)[C@@H]1CNCCO1)C2)c1cccc(C(F)(F)F)c1` [Example 278]: below 1 µM, below 1 µM and below 0.4 µM.
On the same counts, the results for `C[C@@H](Nc1nc(Cl)nc2c1CN(C(=O)C1(O)COC1)C2)c1cccc(C(F)(F)F)c1` [Example 279] are below 1 µM, below 1 µM and above 0.4 µM.
The matching figures for `C[C@@H](Nc1nc(Cl)nc2c1CN(C(=O)C1(C#N)CCN(C)CC1)C2)c1cccc(C(F)(F)F)c1` [Example 280]: below 1 µM, below 1 µM and below 0.4 µM.
Turning to `C[C@@H](Nc1nc(Cl)nc2c1CN(C(=O)[C@H]1CNCCO1)C2)c1cccc(C(F)(F)F)c1` [Example 281], the IC50 in assay [1] and in assay [3] was below 1 µM in each case. The Kd in assay [2] is below 0.4 µM.
Take `C[C@@H](Nc1nc(Cl)nc2c1CN(C(=O)C1(F)CNC1)C2)c1cccc(C(F)F)c1F` [Example 282]: the IC50 in assay [1] and in assay [3] was below 1 µM throughout. Moreover, in assay [2], the Kd was below 0.4 µM.
On to `C[C@@H](Nc1nc(Cl)nc2c1CN(C(=O)CN1CCN(C)CC1)C2)c1cccc(C(F)F)c1F` [Example 283], for which the IC50 in assay [1] and in assay [3] was below 1 µM throughout. Moreover, in assay [2], the equilibrium dissociation constant (Kd) was below 0.4 µM.

Usually IC50 stands for the point on the concentration scale where inhibition reaches its midpoint. By Kd is commonly meant the equilibrium constant for the complex coming apart.

The values above are taken from patent US20230096028A1, “BICYCLIC HETEROCYCLYL COMPOUNDS AND USES THEREOF” (Revolution Medicines, Inc., priority 2019, published 2023).
